According to patent US7015228B2, “4-amino-2-(2-pyridyl)pyrimidines as microbicidal active substances” (Ciba Specialty Chemicals Corporation, priority 2001, dated 2006):
In brackets after ≈: the same amount, converted by molar mass. One block for each compound: values may come before it.

Legend:
[1] = tested on: Staphylococcus hominis DMS 20328; experiment: Minimum inhibitory concentration (MIC) in microtitre plates; assay type: cell-based; details: Table 7, 48 hours at 37° C., MIC = ≦20% growth compared to control
Procedure: (§1) Determination of the Minimum Inhibitory Concentration (MIC Value) in Microtitre Plates
(§2) Casein-soybean flour-peptone broth for preparation of pre-cultures of test bacteria and yeast.
(§3) Mycological slant agar for the pre-culture of moulds
(§4) Examples of Test Organisms:
(§5) The test substances are pre-dissolved in dimethyl sulfoxide (DMSO) and tested in a dilution series of 1:2.
(§6) Bacteria and yeast are cultured overnight in CASO broth, the mould is cultured overnight on mycological slant agar, and washed off using 10 ml of 0.85% sodium chloride solution (+0.1% Triton X-100).
(§7) All the test organisms are adjusted to an organism count of 1–5×10^6 CFU/ml using 0.85% sodium chloride solution.
(§8) The test substances are pre-pipetted into microtitre plates in amounts of 8 μl per well.
(§9) Pre-diluted organism suspensions are diluted 1:100 in CASO broth (bacteria and yeast) or Sabouraud 2% glucose broth (mould) and are added in amounts of 192 μl per well to the test substances.
(§10) The test batches are incubated for 48 hours at 37° C. (bacteria and yeast) or for 5 days at 28° C. (mould).
(§11) After incubation, the growth is determined on the basis of the turbidity of the test batches (optical density) at 620 nm in a microplate reader.
(§12) The minimum inhibitory concentration (MIC value) is the concentration of substance at which there is found (compared to the growth of the control) an appreciable inhibition of growth (≦20% growth) of the test organisms.
(§13) One microtitre plate is used for each test organism and substance concentration. All the substances are tested in duplicate.

[2] = tested on: Escherichia coli NCTC 8196; experiment: as above; assay type: cell-based; details: Table 7, 48 hours at 37° C., MIC = ≦20% growth compared to control
Procedure: as §1, §2, §3, §4, §5, §6, §7, §8, §9, §10, §11, §12, §13

SMILES: FC(F)(F)c1cc(NCc2ccccc2)nc(-c2ccccn2)n1 [compound 94]
- Minimum inhibitory concentration (MIC) S. hominis [1]: >120 µg/mL
- Minimum inhibitory concentration (MIC) E. coli [2]: >120 µg/mL

SMILES: Cc1nc(-c2ccccn2)nc(NCCc2ccccc2)c1C(C)C [compound 75]
- Minimum inhibitory concentration (MIC) S. hominis [1]: 30 µg/mL (≈ 90.2 µM)
- Minimum inhibitory concentration (MIC) E. coli [2]: >120 µg/mL

SMILES: CCc1c(C)nc(-c2ccccn2)nc1NCCCCCCCN [compound 4]
- Minimum inhibitory concentration (MIC) S. hominis [1]: >120 µg/mL
- Minimum inhibitory concentration (MIC) E. coli [2]: >120 µg/mL

SMILES: CCc1c(C)nc(-c2ccccn2)nc1NCc1ccccc1 [compound 88]
- Minimum inhibitory concentration (MIC) S. hominis [1]: 120 µg/mL (≈ 394 µM)
- Minimum inhibitory concentration (MIC) E. coli [2]: 120 µg/mL (≈ 394 µM)

SMILES: CCc1c(C)nc(-c2ccccn2)nc1NCCCCCCCCN [compound 5]
- Minimum inhibitory concentration (MIC) S. hominis [1]: >120 µg/mL
- Minimum inhibitory concentration (MIC) E. coli [2]: >120 µg/mL

SMILES: CC(C)c1cc(NCc2ccccc2)nc(-c2ccccn2)n1 [compound 97]
- Minimum inhibitory concentration (MIC) S. hominis [1]: 15 µg/mL (≈ 49.3 µM)
- Minimum inhibitory concentration (MIC) E. coli [2]: 120 µg/mL (≈ 394 µM)

SMILES: CC(C)c1cc(NCCCCCCCN)nc(-c2ccccn2)n1 [compound 40]
- Minimum inhibitory concentration (MIC) S. hominis [1]: 120 µg/mL (≈ 366 µM)
- Minimum inhibitory concentration (MIC) E. coli [2]: >120 µg/mL

SMILES: COCCc1cc(NC2CCCCC2)nc(-c2ccccn2)n1 [compound 86]
- Minimum inhibitory concentration (MIC) S. hominis [1]: 120 µg/mL (≈ 384 µM)
- Minimum inhibitory concentration (MIC) E. coli [2]: >120 µg/mL

SMILES: FC(F)(F)c1cc(NCCc2ccccc2)nc(-c2ccccn2)n1 [compound 39]
- Minimum inhibitory concentration (MIC) S. hominis [1]: 30 µg/mL (≈ 87.1 µM)
- Minimum inhibitory concentration (MIC) E. coli [2]: >120 µg/mL

SMILES: CCCCCCCCCCCCCCCCNc1nc(-c2ccccn2)nc(C)c1C(C)C [compound 73]
- Minimum inhibitory concentration (MIC) S. hominis [1]: 120 µg/mL (≈ 265 µM)
- Minimum inhibitory concentration (MIC) E. coli [2]: >120 µg/mL

SMILES: CC(C)c1cc(NC2CCCCC2)nc(-c2ccccn2)n1 [compound 50]
- Minimum inhibitory concentration (MIC) S. hominis [1]: 15 µg/mL (≈ 50.6 µM)
- Minimum inhibitory concentration (MIC) E. coli [2]: >120 µg/mL

SMILES: Cc1cc(NCc2ccccc2)nc(-c2ccccn2)n1 [compound 91]
- Minimum inhibitory concentration (MIC) S. hominis [1]: 30 µg/mL (≈ 109 µM)
- Minimum inhibitory concentration (MIC) E. coli [2]: >120 µg/mL

SMILES: CC(C)c1cc(NCCc2ccccc2)nc(-c2ccccn2)n1 [compound 51]
- Minimum inhibitory concentration (MIC) S. hominis [1]: 30 µg/mL (≈ 94.2 µM)
- Minimum inhibitory concentration (MIC) E. coli [2]: >120 µg/mL

SMILES: COCCc1cc(NCCCCCCCN)nc(-c2ccccn2)n1 [compound 76]
- Minimum inhibitory concentration (MIC) S. hominis [1]: 40 µg/mL (≈ 116 µM)
- Minimum inhibitory concentration (MIC) E. coli [2]: >80 µg/mL

SMILES: FC(F)(F)c1cc(NC2CCCCC2)nc(-c2ccccn2)n1 [compound 38]
- Minimum inhibitory concentration (MIC) S. hominis [1]: 60 µg/mL (≈ 186 µM)
- Minimum inhibitory concentration (MIC) E. coli [2]: >120 µg/mL

SMILES: COCCc1cc(NCCc2ccccc2)nc(-c2ccccn2)n1 [compound 87]
- Minimum inhibitory concentration (MIC) S. hominis [1]: 30 µg/mL (≈ 89.7 µM)
- Minimum inhibitory concentration (MIC) E. coli [2]: 120 µg/mL (≈ 359 µM)

SMILES: Cc1nc(-c2ccccn2)nc(NCCCCCCCCCCCCN)c1C(C)C [compound 67]
- Minimum inhibitory concentration (MIC) S. hominis [1]: 5 µg/mL (≈ 12.1 µM)
- Minimum inhibitory concentration (MIC) E. coli [2]: 20 µg/mL (≈ 48.6 µM)

SMILES: Cc1nc(-c2ccccn2)nc(NC2CCCCC2)c1C(C)C [compound 74]
- Minimum inhibitory concentration (MIC) S. hominis [1]: 60 µg/mL (≈ 193 µM)
- Minimum inhibitory concentration (MIC) E. coli [2]: >120 µg/mL

SMILES: Cc1nc(-c2ccccn2)nc(NCCCCCCCN)c1C(C)C [compound 64]
- Minimum inhibitory concentration (MIC) S. hominis [1]: 30 µg/mL (≈ 87.8 µM)
- Minimum inhibitory concentration (MIC) E. coli [2]: >120 µg/mL

More lines, now with the values ahead:

- Minimum inhibitory concentration (MIC) S. hominis [1]: 15 µg/mL (≈ 37.8 µM)
- Minimum inhibitory concentration (MIC) E. coli [2]: >120 µg/mL
SMILES: CCCCCCCCCCCCNc1nc(-c2ccccn2)nc(C)c1C(C)C [compound 72]

- Minimum inhibitory concentration (MIC) S. hominis [1]: >120 µg/mL
- Minimum inhibitory concentration (MIC) E. coli [2]: >120 µg/mL
SMILES: CCCCCCCCCCCCCCCCNc1cc(C(C)(C)C)nc(-c2ccccn2)n1 [compound 61]

- MIC ([1]; Staphylococcus hominis, DMS20328, read-out: Minimum inhibitory concentration (MIC) S. hominis): 60 µg/mL (≈ 147 µM)
- MIC ([2]; Escherichia coli, NCTC8196, read-out: Minimum inhibitory concentration (MIC) E. coli): > 120 µg/mL
SMILES: CCCCCCCCCCCCNc1cc(C(F)(F)F)nc(-c2ccccn2)n1 [compound 36]

- Minimum inhibitory concentration (MIC) S. hominis [1]: 7.5 µg/mL (≈ 18.2 µM)
- Minimum inhibitory concentration (MIC) E. coli [2]: 60 µg/mL (≈ 146 µM)
SMILES: CC(C)(C)c1cc(NCCCCCCCCCCCCN)nc(-c2ccccn2)n1 [compound 55]

- Minimum inhibitory concentration (MIC) S. hominis [1]: >80 µg/mL
- Minimum inhibitory concentration (MIC) E. coli [2]: >80 µg/mL
SMILES: Cc1cc(NCCCCCCCCN)nc(-c2ccccn2)n1 [compound 17]

- Minimum inhibitory concentration (MIC) S. hominis [1]: >120 µg/mL
- Minimum inhibitory concentration (MIC) E. coli [2]: >120 µg/mL
SMILES: CCCCCCCCCCCCCCCCNc1cc(C(C)C)nc(-c2ccccn2)n1 [compound 49]

- Minimum inhibitory concentration (MIC) S. hominis [1]: 120 µg/mL (≈ 274 µM)
- Minimum inhibitory concentration (MIC) E. coli [2]: >120 µg/mL
SMILES: CCCCCCCCCCCCCCCCNc1nc(-c2ccccn2)nc(C)c1CC [compound 13]

- Minimum inhibitory concentration (MIC) S. hominis [1]: 15 µg/mL (≈ 37.6 µM)
- Minimum inhibitory concentration (MIC) E. coli [2]: 120 µg/mL (≈ 301 µM)
SMILES: CCCCCCCCCCCCNc1cc(CCOC)nc(-c2ccccn2)n1 [compound 84]

- Minimum inhibitory concentration (MIC) S. hominis [1]: 5 µg/mL (≈ 11.8 µM)
- Minimum inhibitory concentration (MIC) E. coli [2]: 20 µg/mL (≈ 47.2 µM)
SMILES: NCCCCCCCCCCCCNc1cc(C(F)(F)F)nc(-c2ccccn2)n1 [compound 31]

- Minimum inhibitory concentration (MIC) S. hominis [1]: >80 µg/mL
- Minimum inhibitory concentration (MIC) E. coli [2]: >80 µg/mL
SMILES: NCCCCCCCNc1cc(C(F)(F)F)nc(-c2ccccn2)n1 [compound 28]

- Minimum inhibitory concentration (MIC) S. hominis [1]: >80 µg/mL
- Minimum inhibitory concentration (MIC) E. coli [2]: >80 µg/mL
SMILES: NCCCCCCCCNc1cc(C(F)(F)F)nc(-c2ccccn2)n1 [compound 29]

- Minimum inhibitory concentration (MIC) S. hominis [1]: 120 µg/mL (≈ 304 µM)
- Minimum inhibitory concentration (MIC) E. coli [2]: >120 µg/mL
SMILES: CCCCCCCCCCCNc1cc(C(F)(F)F)nc(-c2ccccn2)n1 [compound 95]

- Minimum inhibitory concentration (MIC) S. hominis [1]: 7.5 µg/mL (≈ 26.4 µM)
- Minimum inhibitory concentration (MIC) E. coli [2]: 120 µg/mL (≈ 422 µM)
SMILES: CCCCCCCNc1cc(C)nc(-c2ccccn2)n1 [compound 20]

- Minimum inhibitory concentration (MIC) S. hominis [1]: 120 µg/mL (≈ 351 µM)
- Minimum inhibitory concentration (MIC) E. coli [2]: >120 µg/mL
SMILES: CC(C)c1cc(NCCCCCCCCN)nc(-c2ccccn2)n1 [compound 41]

- Minimum inhibitory concentration (MIC) S. hominis [1]: 120 µg/mL (≈ 264 µM)
- Minimum inhibitory concentration (MIC) E. coli [2]: 120 µg/mL (≈ 264 µM)
SMILES: CCCCCCCCCCCCCCCCNc1cc(CCOC)nc(-c2ccccn2)n1 [compound 85]

- Minimum inhibitory concentration (MIC) S. hominis [1]: 7.5 µg/mL (≈ 21 µM)
- Minimum inhibitory concentration (MIC) E. coli [2]: 120 µg/mL (≈ 337 µM)
SMILES: CCCCCCCCCNc1cc(CCOC)nc(-c2ccccn2)n1 [compound 82]

- Minimum inhibitory concentration (MIC) S. hominis [1]: 120 µg/mL (≈ 266 µM)
- Minimum inhibitory concentration (MIC) E. coli [2]: 120 µg/mL (≈ 266 µM)
SMILES: CCCCCCCCCCCCCCCNc1cc(C(F)(F)F)nc(-c2ccccn2)n1 [compound 96]

- Minimum inhibitory concentration (MIC) S. hominis [1]: 30 µg/mL (≈ 91.3 µM)
- Minimum inhibitory concentration (MIC) E. coli [2]: >120 µg/mL
SMILES: CCCCCCCNc1cc(CCOC)nc(-c2ccccn2)n1 [compound 80]

- Minimum inhibitory concentration (MIC) S. hominis [1]: >120 µg/mL
- Minimum inhibitory concentration (MIC) E. coli [2]: >120 µg/mL
SMILES: Cc1cc(NCCCCCCCN)nc(-c2ccccn2)n1 [compound 16]

- Minimum inhibitory concentration (MIC) S. hominis [1]: 15 µg/mL (≈ 36.5 µM)
- Minimum inhibitory concentration (MIC) E. coli [2]: >120 µg/mL
SMILES: CCCCCCCCCCCCCCCCNc1cc(C)nc(-c2ccccn2)n1 [compound 25]

- Minimum inhibitory concentration (MIC) S. hominis [1]: 15 µg/mL (≈ 43.8 µM)
- Minimum inhibitory concentration (MIC) E. coli [2]: >120 µg/mL
SMILES: CCCCCCCCNc1cc(CCOC)nc(-c2ccccn2)n1 [compound 81]

- Minimum inhibitory concentration (MIC) S. hominis [1]: 80 µg/mL (≈ 225 µM)
- Minimum inhibitory concentration (MIC) E. coli [2]: >80 µg/mL
SMILES: CC(C)(C)c1cc(NCCCCCCCCN)nc(-c2ccccn2)n1 [compound 53]
